According to patent US20100168112A1, “2-Substituted and 4-substituted aryl nitrone compounds” (RENOVIS, INC., priority 2004, published 2010):

What was measured:
CCI rats = experiment: Mechanical allodynia in mononeuropathic pain model (chronic constrictive injury, CCI, Bennett model); type: in vivo, SD rats; conditions: for PWT ipsilateral hind paw (von Frey): 50 mg/kg p.o. single dose, mean ± SEM; for anti-allodynic effect on ipsilateral hind paw vs vehicle (in words): single dose 50 mg/kg, p.o.
Excerpt: Adult male SD rats weighing 250-300 gm (Charles River Laboratories, San Diego, Calif.) were used. The animal room was lighted artificially at a 12-hr light-dark cycle (7:00 A.M. to 7:00 P.M) with water and food supply ad libitum. Animals were allocated randomly into groups. Seven days before establishing the mononeuropathic pain disease model, rats were trained on a metal mesh floor, covered with a plastic box (10×10×18 cm) 1-2 hr per day to habituate. During the habituating phase, non-painful tactile stimulation on the plantar surface of each hind paw was induced by a set of calibrated von Frey filaments, through the mesh floor, as described in example 2.
Following the 7-day training phase, the animals were anesthetized by i.p. injection of sodium pentobarbital (65 mg/kg, Abbott Lab, Chicago, Ill.). Under aseptic procedures, the skin of the left thigh was cut open for ˜2 cm. Mid-thigh level of the common sciatic nerve was exposed after blunt separation of the muscles. Two 4-0 silk and one 4-0 chromic gut sutures (both from Ethicon, Somerville, N.J.) were loosely ligated around the nerve, with a 1-1.5 mm interval between each of them. Skin wound was then close with wound clips. The right side (i.e., the contralateral side) was not surgically injured. After recovery from surgery, rats showing post-surgery neurological deficits or poor grooming were excluded from the experiments. This surgical procedure (i.e., chronic constrictive injury, CCI, or Bennett model) to establish mononeuropathic pain disease model has been described elsewhere (Bennett, G. J. and Xie, Y. K.: A peripheral mononeuropathy in rat that produces disorders of pain sensation like those seen in man. Pain, 33: 87-107, 1988).
On days 1, 3, 4, 7, 9, 11, and 14 after surgery, animals were tested for mechanical allodynia with von Frey filaments as described previously. On or around post-surgical day 14, the ipsilateral hind paw, felt to 5 grams, an indication of allodynia began to manifest mechanical allodynia (i.e., amplified response to non-painful tactile stimulation by von Frey filaments). The contralateral hind paws remained above the 5-gram level (i.e., no allodynia).
After manifestation of this allodynia, Compound 62 (50 mg/kg, p.o.), Compound 63 (50 mg/kg, p.o.), Compound 66 (50 mg/kg, p.o.), Compound 23 (50 mg/kg, p.o.), 4-hydroxy-tempol (TEMPOL, 50 mg/kg, p.o.), or piroxicam (a COX1 inhibitor, 50 mg/kg, p.o.) were administered to randomly-assigned animals. Changes of mechanical allodynia in the ipsilateral hind paw were recorded at several time points over the course of up to 24 hr.

[1] = Microsomal stability in rat liver microsomes; type: in vitro ADME; conditions: rat liver microsomes 0.5 mg/ml, 1 mM NADPH, ~500 ng/ml compound, 37° C.
Description: Frozen Sprague-Dawley rat liver microsomes (RLM) were thawed on ice and gently mixed before use. The final reaction mixture consisted of a nitrone compound of this invention (at ˜500 ng/ml), 1 mM NADPH, and 0.5 mg/ml of RLM protein in 0.1 M PBS (pH7.4), with organic solvent concentration not exceeding 1% (v/v). Per set of incubations, a positive control compound was included. The mixture was first pre-incubated 3 to 5 minutes at 37° C. without NADPH, and the reaction was then initialized by the addition of NADPH and incubated at 37° C. for up to 30 minutes. An aliquot of the reaction mixture was sampled at the initiation of the reaction and at designated time after reaction started. The drawn samples were quenched with acetonitrile, diluted with mobile phase to ensure the detection of test article in the linear range, and analyzed by LC/MS/MS. Half-life or percentage of remaining nitrone compound was calculated using standard methods. A similar method, or a slight variation of it, was used to test the stability of nitrones in human liver microsomes (HLM).

[2] = system: carrageenan-sensitized inflammatory model of rat; experiment: Carrageenan-sensitized thermal hyperalgesia (Hargreaves test); type: in vivo; conditions: 50 mg/kg oral; for PWL (thermal paw withdrawal latency), carrageenan paw: mean ± SEM
Description: In this experiment, animals were habituated to the test environment for 2 days. Each rat was individually placed on a transparent perplex glass floor, covered with a plastic box (10×10×18 cm), and allowed 0.5-1 hr to habituate. After the acclimation period, basal thermal withdrawal latency (PWL, time interval between heat stimulation and paw withdrawal) was measured by exposing the plantar surface of a rats hind paw to a beam of radiant heat generated from a focused projection bulb through a transparent perplex glass surface (Hargreaves test; Hargreaves, K. R., Dubner, R., Brown, F., Flores, C. & Joris, J.: A new and sensitive method for measuring thermal nociception in cutaneous hyperalgesia. Pain, 32: 77-88, 1988). The PWL was averaged from at least two trials separated by a 2 min interval. A timer was used to measure the withdrawal latency and a cut of time of 20-sec was used to prevent tissue damage. Before the test on STZ-diabetic rats, the intensity of the radiating heat was adjusted to the level that caused naive animal to withdraw its paw at around 10 seconds.
After a stable basal PWL was obtained, the animals were briefly anesthetized with isoflurane (2-5% to effect). One side of their hind paws received an intraplantar injection of lambda carrageenan (2 mg in 100 microliter sterile saline, Sigma, St. Louis, Mo.). The contralateral side received no injection and served as an intra-subject control. The animals were then returned to their home cages and transferred to the individual testing chambers for heat thermal hyperalgesic testing, 2.5 hr after carrageenan injection. 3-hr post-carrageenan injection, PWLs of both hind paws (i.e., ipsilateral and contralateral) were measured at several time points post-carrageenan injection (15-min to 24-hr).
For compound testing, rats were randomly enrolled into groups that, immediately after the 3-hr post-carrageenan PWL was obtained, received oral dosing of Compound 62 (50 mg/kg), Compound 63 (50 mg/kg), vehicle (1 ml/kg), or indomethacin (30 mg/kg). Compound 62 and Compound 63 were prepared as a suspension in vehicle (96% of 0.5% CMC and 4% of 10% Tween 80) while indomethacin was prepared as a 30 mg/ml in normal saline.

[3] = post-dosing time −15 min (pre-dose)
[4] = post-dosing time 0 min (3 hr post-carrageenan)

Row | Compound | PWT ipsilateral hind paw (von Frey) (CCI rats; post-dosing time 30 min) [gm] | PWT ipsilateral hind paw (von Frey) (CCI rats; post-dosing time 60 min) [gm] | PWT ipsilateral hind paw (von Frey) (CCI rats; post-dosing time 300 min) [gm] | PWT ipsilateral hind paw (von Frey) (CCI rats; post-dosing time 1440 min) [gm] | PWT ipsilateral hind paw (von Frey) (CCI rats; [3]) [gm] | anti-allodynic effect on ipsilateral hind paw vs vehicle (in words) (CCI rats) | PWT ipsilateral hind paw (von Frey) (CCI rats; post-dosing time 5 min) [gm] | PWT ipsilateral hind paw (von Frey) (CCI rats; post-dosing time 120 min) [gm] | PWT ipsilateral hind paw (von Frey) (CCI rats; post-dosing time 240 min) [gm] | PWT ipsilateral hind paw (von Frey) (CCI rats; post-dosing time 360 min) [gm] | % of Nitrone Remaining at 30 min (Rat) [1] [%] | effect on carrageenan-sensitized heat hyperalgesia compared to vehicle-treated carrageenan-paw (in words) [2] | PWL (thermal paw withdrawal latency), carrageenan paw [2, 4] [s] | PWL (thermal paw withdrawal latency), carrageenan paw ([2]; post-dosing time 15 min) [s] | PWL (thermal paw withdrawal latency), carrageenan paw ([2]; post-dosing time 120 min) [s] | PWL (thermal paw withdrawal latency), carrageenan paw ([2]; post-dosing time 240 min) [s] | PWL (thermal paw withdrawal latency), carrageenan paw ([2]; post-dosing time 1400 min) [s] | PWL (thermal paw withdrawal latency), carrageenan paw ([2]; post-dosing time 60 min) [s] | PWL (thermal paw withdrawal latency), carrageenan paw ([2]; post-dosing time 180 min) [s]
1 | CC(C)(C)/[N+]([O-])=C/c1ccc(S(=O)(=O)N2CCOCC2)cc1 [Compound 23, N-(tert-Butyl)-C-[4-(morpholine-4-sulfonyl)phenyl]nitrone] | 7.67 ± 0.80 | 8.17 ± 1.52 | 4.43 ± 1.35 | 4.67 ± 0.84 | 2.43 ± 0.54 | statistically significant anti-allodynic effects | – | – | – | – | – | – | – | – | – | – | – | – | –
2 | CC(C)(C)/[N+]([O-])=C/c1ccc(S(C)(=O)=O)cc1 [Compound 62, N-tert-Butyl-C-[4-(methanesulfonyl)phenyl]nitrone] | – | – | – | 3.43 ± 1.02 | 3.17 ± 1.10 | rapid onset but short-lasting anti-allodynic effect | 2.86 ± 0.94 | 16.71 ± 3.44 | 15.14 ± 3.90 | 5.46 ± 1.46 | 100 | statistically significant effect | 4.65 ± 0.63 | 7.33 ± 1.43 | 7.55 ± 1.08 | 5.38 ± 1.11 | 5.33 ± 1.09 | – | –
3 | CC(C)(C)/[N+]([O-])=C/c1ccc(S(C)(=O)=O)cc1S(C)(=O)=O [Compound 63, N-tert-Butyl-C-(2,4-bis-methanesulfonylphenyl)nitrone] | 18.4 ± 10.42 | 18.8 ± 11.29 | 5.20 ± 1.63 | 3.60 ± 1.30 | 3.88 ± 0.97 | produced anti-allodynic effects on ipsilateral hind paws | – | – | – | – | 97 | statistically significant effect | 4.98 ± 0.85 | 4.93 ± 1.22 | – | – | 5.70 ± 0.71 | 4.15 ± 1.04 | 3.65 ± 0.64
4 | CCS(=O)(=O)c1ccc(/C=[N+](\[O-])C(C)(C)C)c(S(=O)(=O)CC)c1 [Compound 64, N-tert-Butyl-C-(2,4-bis-ethanesulfonylphenyl)nitrone] | – | – | – | – | – | – | – | – | – | – | 100 | – | – | – | – | – | – | – | –
5 | CC(C)(C)/[N+]([O-])=C/c1ccccc1S(C)(=O)=O [Compound 66, N-tert-Butyl-C-(2-methanesulfonylphenyl)nitrone] | 5.33 ± 0.42 | 4.12 ± 0.91 | 5.33 ± 1.12 | 1.57 ± 0.23 | 1.97 ± 0.84 | no significant anti-allodynic effect | – | – | – | – | – | – | – | – | – | – | – | – | –
